Test results: article PMC6492175, “Glio‐ and neuro‐protection by prosaposin is mediated by orphan G‐protein coupled receptors GPR37L1 and GPR37” (Glia, 2018)
Where two headings read alike, the source gives them in different places.

Legend:
astrocytes [1] = assay: DAPI staining, astrocyte cell number; format: cell-based, Wistar rat; settings: for cell numbers (DAPI) vs control: n = 4, triplicates, Dunnett's
Experimental: Astrocytes were seeded in 96‐well plate (1 × 10^4 per well) and fixed in 4% paraformaldehyde for 5 min, washed in PBS three times for 5 min each time before and after incubating with 1 μg/mL DAPI for 10 min. Round and whole nuclei in nine fields of view per well were counted using ImageJ (NIH, Bethesda, MD).

astrocytes [2] = assay: Scratch wound assay (astrocyte migration); format: cell-based, Wistar rat; settings: for wound closure: monitored 72 hr, n = 5, triplicates; for ability of astrocytes to close the wound: PDM, n = 6, triplicates
Experimental: A wound recovery assay was carried out to analyze the migration of astrocytes using the IncuCyte system (Essen BioScience Inc., Ann Arbor, MI). Primary astrocytes were seeded in ImageLock 96‐well plates (4,379, Essen BioScience) at a density of 4 × 10^4 per well. After 24 hr, standardized and reproducible (700–800 μm wide) scratch “wounds” were created in all wells using a dedicated device. Cultures were exposed to different testing conditions, for example, stressors, and were maintained and imaged at hourly intervals up to 72 hr.
Cell density was measured in the scratch area and compared to undisrupted adjacent monolayer. Relative wound density (%), a measure of wound recovery, was calculated using the formula: Relative wound density (%) = (Density of wound region at certain time point – Initial density of wound region)/(Density of intact cell region at certain time point − Initial density of wound) × 100%.

PSAP = assay: Immunodetection (Western blot) of PSAP in neuron-astrocyte co-culture media; format: cell-based, Wistar rat; settings: H2O2 stress applied to neurons, Figure S9
primary astrocytes = settings: 5 hr, LDH 24 hr later, PDM
Experimental: Primary cultures of astrocytes were prepared from the cerebral cortices, cerebellum, and brainstem from Wistar rat pups (P2) following protocols described previously (1–3). Briefly, the brains of Wistar P2 pups were dissected out, crudely cross‐chopped and bathed in a solution containing HBSS, DNase I (0.04 mg/mL), trypsin from bovine pancreas (0.25 mg/mL) and BSA (3 mg/mL). The preparation was agitated at 37 °C for 15 min. Trypsinization of the brain tissue was terminated by the addition of equal volumes of culture media comprised of DMEM, 10% heat‐inactivated FBS, 100 U/mL penicillin, and 0.1 mg/mL streptomycin and then centrifuged at 2000 rpm, at room temperature (RT) for 10 min. The supernatant was aspirated, and the remaining pellet was resuspended in 15 mL HBSS containing BSA (3 mg/mL) and DNase I (0.04 mg/mL) and triturated gently. After the cell debris had settled, the cell suspension was filtered through a 40‐μm cell strainer (BD Falcon, BD Biosciences, Franklin Lakes, NJ) and cells were collected after centrifugation. Cells were seeded in a T75 flask containing culture media (see above) and maintained at 37 °C with 5% CO2. Once the cultures reached confluence and 1 week later, the flasks were mildly shaken overnight to remove microglia and oligodendrocytes. When astrocytes were seeded for experiments, media was changed to DMEM supplemented with 5% FBS instead of 10% FBS.
Lactate dehydrogenase (LDH) release from damaged cells was assessed colorimetrically with LDH Cytotoxicity Assay Kit (Pierce) according to the manufacturer's instructions. Activity is proportional to colorimetric reduction of tetrazolium salt measured at 490 nm. Cytotoxicity was normalized to maximal LDH activity as released from cells acutely exposed to Triton X‐100, and calculated using the formula: % Cytotoxicity = (Compound‐treated LDH activity – Spontaneous LDH activity)/(Maximum LDH activity – Spontaneous LDH activity) × 100%.
The media was then replaced by fresh PDM with or without TX14(A). Cells were incubated for a further 24 hr before carrying out the LDH reaction on 50 μL of media.

GPR37L1/GPR37 = assay: Luminescence-based GloSensor cAMP assay in astrocytes; format: cell-based, Wistar rat; settings: NKH477 1 μM, rat astrocytes
Experimental: The GloSensor assay uses genetically encoded biosensor variants with cAMP binding domains fused to mutant forms of Photinus pyralis luciferase. The luminescence of the reporter increases directly proportionally to the amount of cAMP present. Astrocytes were seeded in 96‐well plates and transduced with an AVV bearing the CMV‐driven GLO22F at multiplicity of infection (MOI) 10. After 24 hr transduction, media was exchanged for 100 μL HEPES‐buffered HBSS (pH 7.6). Cells were then incubated with 0.731 mM beetle luciferin for 2 hr in the dark. After baseline reading, NKH477 and/or TX14(A) were added to the wells and incubated for 20 min. Luminescence measurements were obtained using a Tecan microplate reader (Infinite M200 PRO).

[3] = molecular target: GPR37L1 (rat, endogenous in astrocytes) (rat (endogenous in primary astrocytes)) (UniProt Q9QYC5)
Sequence of GPR37L1 (rat, endogenous in astrocytes) (rat (endogenous in primary astrocytes)) (Q9QYC5 25-481): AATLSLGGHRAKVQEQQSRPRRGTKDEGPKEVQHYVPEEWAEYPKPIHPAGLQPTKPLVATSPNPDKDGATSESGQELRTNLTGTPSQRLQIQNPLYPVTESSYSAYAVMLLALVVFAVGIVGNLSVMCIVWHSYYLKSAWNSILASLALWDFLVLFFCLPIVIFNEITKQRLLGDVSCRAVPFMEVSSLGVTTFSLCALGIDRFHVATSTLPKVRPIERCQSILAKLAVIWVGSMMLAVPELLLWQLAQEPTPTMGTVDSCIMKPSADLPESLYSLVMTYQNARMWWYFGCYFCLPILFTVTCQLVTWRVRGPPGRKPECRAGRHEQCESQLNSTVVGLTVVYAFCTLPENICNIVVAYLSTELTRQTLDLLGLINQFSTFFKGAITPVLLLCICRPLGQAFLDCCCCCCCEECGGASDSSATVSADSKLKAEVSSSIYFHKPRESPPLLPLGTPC

[4] = molecular target: GPR37 (rat, endogenous in astrocytes) (rat (endogenous in primary astrocytes)) (UniProt Q9QYC6)
Sequence of GPR37 (rat, endogenous in astrocytes) (rat (endogenous in primary astrocytes)) (Q9QYC6 27-603): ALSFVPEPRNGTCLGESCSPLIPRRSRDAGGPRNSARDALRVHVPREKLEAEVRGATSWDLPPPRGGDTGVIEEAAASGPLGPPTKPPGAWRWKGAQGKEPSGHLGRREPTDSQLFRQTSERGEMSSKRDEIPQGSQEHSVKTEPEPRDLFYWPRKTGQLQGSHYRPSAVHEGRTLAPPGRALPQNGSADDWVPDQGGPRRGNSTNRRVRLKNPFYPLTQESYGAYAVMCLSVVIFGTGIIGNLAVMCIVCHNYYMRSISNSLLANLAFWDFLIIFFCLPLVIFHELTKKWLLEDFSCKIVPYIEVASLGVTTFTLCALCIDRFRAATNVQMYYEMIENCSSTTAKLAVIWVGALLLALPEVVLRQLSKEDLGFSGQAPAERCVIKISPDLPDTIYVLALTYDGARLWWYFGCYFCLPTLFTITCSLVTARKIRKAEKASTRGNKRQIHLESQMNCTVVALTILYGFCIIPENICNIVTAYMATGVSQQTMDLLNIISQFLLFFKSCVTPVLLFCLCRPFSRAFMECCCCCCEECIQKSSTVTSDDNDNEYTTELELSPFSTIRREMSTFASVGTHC

neuroblastoma NS20 line [5] = molecular target: neuroblastoma NS20 line; set-up: method as in O'Brien et al., 1994; settings: radio-labeled Sap C, ref O'Brien et al., 1994, read-out: Kd of specific binding; cited from earlier work
receptor of ~54 kDa = settings: ref Hiraiwa et al., 1997; cited from earlier work
neuroblastoma NS20 line [6] = system: neuroblastoma NS20 line; set-up: method as in O'Brien et al., 1994; settings: ref O'Brien et al., 1994; cited from earlier work
gerbils = system: gerbils; set-up: method as in Sano et al., 1994; settings: recombinant, chronic icv infusion, ref Sano et al., 1994; cited from earlier work

## O=C(Nc1ncnc2c1ncn2[C@@H]1O[C@@H]2COP(=O)(O)O[C@H]2[C@H]1O)c1ccccc1 [6‐BenZ‐cAMP]
Astrocytes [1]; 6-BenZ-cAMP 500 μM
  cell numbers (DAPI) vs control: significantly decreased cell numbers as compared to control
Astrocytes [2]; 6-benz-cAMP 250–1,000 μM, concentration-dependent
  wound closure: greatly slowed down wound closure

## CO[C@@H]1[C@@H]2OP(=O)(O)OC[C@H]2O[C@H]1n1c(Sc2ccc(Cl)cc2)nc2c(N)ncnc21 [8‐pCPT‐2′‐O‐Me‐cAMP]
Astrocytes [1]; 8-pCPT-2′-O-Me-cAMP 1,000 μM
  cell numbers (DAPI) vs control: significantly decreased cell numbers as compared to control
Astrocytes [2]; 8-pCPT-2′-O-Me-cAMP 250–1,000 μM
  wound closure: had no effect

## OO [H2O2]
PSAP
  PSAP in co-culture media: increase in PSAP in co‐culture media in response to H2O2 stress
Astrocytes [2]; H2O2, 5 hr pre-exposure, 48 hr
  ability of astrocytes to close the wound: drastically inhibited their ability to close the wound
Primary astrocytes; H2O2 250 μM
  cytotoxicity (LDH release): comparable degree of cytotoxicity

## C=C[C@@]1(C)CC(=O)[C@]2(O)[C@@]3(C)[C@@H](O)CCC(C)(C)[C@@H]3[C@H](OC(=O)CCN(C)C)[C@H](OC(C)=O)[C@@]2(C)O1.Cl [NKH477]
Astrocytes [1]; NKH477 10 μM
  cell numbers (DAPI) vs control: significantly decreased cell numbers as compared to control
GPR37L1/GPR37
  increase of baseline cAMP levels: ~ 20 fold

## C=C(C)[C@H]1Cc2c(ccc3c2O[C@@H]2COc4cc(OC)c(OC)cc4[C@@H]2C3=O)O1 [rotenone]
Primary astrocytes; rotenone 100 μM
  cytotoxicity (LDH release): comparable degree of cytotoxicity

## CN[C@@H]1C[C@H]2O[C@@](C)([C@@H]1OC)n1c3ccccc3c3c4c(c5c6ccccc6n2c5c31)C(=O)NC4 [staurosporine]
Astrocytes [2]; staurosporine, 5 hr pre-exposure, 48 hr
  ability of astrocytes to close the wound: drastically inhibited their ability to close the wound
Primary astrocytes; staurosporine 200 nM
  cytotoxicity (LDH release): comparable degree of cytotoxicity

## prosaptide TX14(A) (peptide)
[3]
  inhibition of NKH477 (1 μM)-raised cAMP in rat astrocytes, GloSensor luminescence, concentration-response of TX14(A); obliterated by combined knock-down of GPR37L1 and GPR37: 17.8 nM
  percent inhibition of NKH477-mediated cAMP production in rat astrocytes at the maximal concentration of TX14(A) used (200 nM), GloSensor: 40%
[4]
  inhibition of NKH477 (1 μM)-raised cAMP in rat astrocytes, GloSensor luminescence, concentration-response of TX14(A); obliterated by combined knock-down of GPR37L1 and GPR37: 17.8 nM
  percent inhibition of NKH477-mediated cAMP production in rat astrocytes at the maximal concentration of TX14(A) used (200 nM), GloSensor: 40%

B1: Sap C: Saposin C, fragment of prosaposin (protein, UniProt P07602 311-390, looked up)
Saposin-C: SDVYCEVCEFLVKEVTKLIDNNKTEKEILDAFDKMCSKLPKSLSEECQEVVDTYGSSILSILLEEVSPELVCSMLHLCSG
modifications: Saposin-C
notes: Saposin C, fragment of prosaposin
Neuroblastoma NS20 line [5]
  Kd: 0.019 nM
Receptor of ~54 kDa
  interaction with receptor (molecular mass): interacts with a receptor of ~54 kDa
Neuroblastoma NS20 line [6]
  neurotrophic activity: identified as neurotrophic factors

B2: PSAP: prosaposin, neurotrophic factor, precursor of Saposin C (protein)
chain: SPVLGLRECTRGSAVWCQNVKTAADCGAVQHCLQTVWSKPTVKSLPCDICKDVITAAGNLLKDNATEQEILMYLERTCDWLPKPNMSASCKEIVDSYLPVILDMIKGQMSHPGEVCSALNLCESLQKHLAELNHQKQLESNQIPELDMAEVVAPFMANIPFLLYPQDGSHSKPQPKKANGNVCQDCIQLVTDVQEALRTNSTFVEALVDHAKEECDRLGPGMSDMCKNYINQYSEVAIQMVMHMQPKEICVLAGFCDEVKEMPMKTLVPAEVVSENVIPALGLVEPIKKDPAPAKADIYCEVCEFVVKEVAKLIDNNRTEEEILHALDKVCSKLPTSLAEQCQEVVDTYGSSILSILLDEASPELVCSMLHLCSSRGLPAATVRVMPRKDGGFCEVCKKLVGYLDRNLEKNSTKEQILAALEKGCSFLPDQYRKQCDQFVTEYEPVLIEILVEVMDPSFVCLKIGACPAAHKPLLGAEKCVWGPSYWCQNMESAALCNAVEHCRRHVWN
Astrocytes [1]; TX14(A) 100 nM in PDM, or PSAP depletion, n = 15
  number of cells in cultures (DAPI): neither depletion of PSAP nor addition of TX14(A) affected the number of cells in cultures
Astrocytes [2]; PSAP depleted by immunoadsorption vs FBS-containing media, 48 hr
  wound closure after PSAP depletion: drastically slowed down by PSAP depletion
Neuroblastoma NS20 line [6]
  neurotrophic activity: identified as neurotrophic factors
gerbils
  ischemia-induced learning deficits and neuronal loss: almost completely prevented ischemia‐induced learning deficits and neuronal loss
